Measurements published in patent US20230014445A1, “ALLOSTERIC CHROMENONE INHIBITORS OF PHOSPHOINOSITIDE 3-KINASE (PI3K) FOR THE TREATMENT OF DISEASE” (Petra Pharma Corporation, priority 2021, published 2023).
Like-named read-outs stand apart in the source and are kept apart here.

Experiments:
[1] = biological target: T1, human full length PIK3KA Wild-type (p110α/p85α complex) (Homo sapiens, UniProt P42336); experiment: PI3K-Alpha Kinase (PIK3CA) biochemical activity, wild-type (ADP-Glo); conditions: 20 uM ATP
T1 construct: Recombinant, catalytically active human full length PIK3KA Wild-type and H1047R mutant were purchased; 6xHis (N); purchased EMD Millipore Sigma 14-602M
Procedure, shortened: (§1)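 ADP formation, measured by ADP-Glo luminescence after reaction to about 10% ATP conversion at 27° C., gives 10-point 4-parameter IC50 curves normalized to no-enzyme and DMSO controls. Lipid substrate was PIP2diC8 or Soy PI at 50 uM, with 20 uM ATP. WT or H1047R p110α/p85α complex (1-5 nM) was preincubated 1 h with compound.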

[2] = biological target: T2, human full length PIK3KA H1047R mutant (p110α/p85α complex) (Homo sapiens, UniProt P42336, H1047R); experiment: PI3K-Alpha Kinase (PIK3CA) biochemical activity, H1047R mutant (ADP-Glo); conditions: 20 uM ATP
T2 construct: Recombinant, catalytically active human full length PIK3KA Wild-type and H1047R mutant were purchased; 6xHis (N); purchased EMD Millipore Sigma 14-792M
T2 sequence (P42336 whole entry H1047R): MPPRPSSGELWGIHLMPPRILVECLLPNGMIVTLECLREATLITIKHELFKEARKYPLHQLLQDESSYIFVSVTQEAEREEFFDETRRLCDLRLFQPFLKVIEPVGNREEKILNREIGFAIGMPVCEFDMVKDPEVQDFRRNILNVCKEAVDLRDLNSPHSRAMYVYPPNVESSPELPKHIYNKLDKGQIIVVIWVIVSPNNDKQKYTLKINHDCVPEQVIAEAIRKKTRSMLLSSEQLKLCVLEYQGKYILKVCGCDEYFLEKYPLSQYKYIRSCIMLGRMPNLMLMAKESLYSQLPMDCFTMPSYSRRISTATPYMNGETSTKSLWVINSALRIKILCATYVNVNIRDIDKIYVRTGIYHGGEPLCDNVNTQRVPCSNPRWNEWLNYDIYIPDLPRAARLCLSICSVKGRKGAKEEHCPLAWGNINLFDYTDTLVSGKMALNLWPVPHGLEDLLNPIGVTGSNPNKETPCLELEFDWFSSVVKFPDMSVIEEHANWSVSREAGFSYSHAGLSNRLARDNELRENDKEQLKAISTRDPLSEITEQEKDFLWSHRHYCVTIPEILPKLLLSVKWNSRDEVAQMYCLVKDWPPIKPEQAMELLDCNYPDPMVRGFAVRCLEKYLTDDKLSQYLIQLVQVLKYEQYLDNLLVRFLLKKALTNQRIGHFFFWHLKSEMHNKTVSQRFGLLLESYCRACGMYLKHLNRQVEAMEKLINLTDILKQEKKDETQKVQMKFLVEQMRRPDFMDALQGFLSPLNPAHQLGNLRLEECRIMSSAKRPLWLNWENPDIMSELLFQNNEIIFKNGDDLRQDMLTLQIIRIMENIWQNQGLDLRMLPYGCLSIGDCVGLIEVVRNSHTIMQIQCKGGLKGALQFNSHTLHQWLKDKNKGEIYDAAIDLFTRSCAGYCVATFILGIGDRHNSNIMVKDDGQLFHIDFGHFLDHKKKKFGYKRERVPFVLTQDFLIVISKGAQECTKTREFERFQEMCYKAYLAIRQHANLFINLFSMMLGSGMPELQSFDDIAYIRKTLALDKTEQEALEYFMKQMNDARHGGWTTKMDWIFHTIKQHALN
T2 sequence (P27986 whole entry partner): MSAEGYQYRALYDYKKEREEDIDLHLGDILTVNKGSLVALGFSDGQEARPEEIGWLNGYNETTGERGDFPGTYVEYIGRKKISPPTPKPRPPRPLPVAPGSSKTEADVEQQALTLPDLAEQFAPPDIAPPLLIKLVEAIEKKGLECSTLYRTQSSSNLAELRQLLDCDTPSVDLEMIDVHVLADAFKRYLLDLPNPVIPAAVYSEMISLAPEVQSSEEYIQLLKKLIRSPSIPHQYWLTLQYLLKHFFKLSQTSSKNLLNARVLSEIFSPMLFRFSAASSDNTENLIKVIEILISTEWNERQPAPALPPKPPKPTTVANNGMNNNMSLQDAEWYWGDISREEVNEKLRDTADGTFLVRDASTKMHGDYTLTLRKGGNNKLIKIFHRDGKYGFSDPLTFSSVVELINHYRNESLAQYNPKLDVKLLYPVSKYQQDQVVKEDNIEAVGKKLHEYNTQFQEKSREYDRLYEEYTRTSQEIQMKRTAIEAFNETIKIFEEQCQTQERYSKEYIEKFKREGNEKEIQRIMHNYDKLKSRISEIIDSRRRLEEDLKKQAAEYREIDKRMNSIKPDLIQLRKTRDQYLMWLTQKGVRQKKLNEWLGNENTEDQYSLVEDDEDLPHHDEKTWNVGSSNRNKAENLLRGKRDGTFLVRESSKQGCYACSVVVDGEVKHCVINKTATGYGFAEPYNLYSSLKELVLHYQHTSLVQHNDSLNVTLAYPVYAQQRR
Procedure, shortened: as §1

[3] = biological target: PI3K-α (PIK3CA) in MDA-MB-453 cells (Homo sapiens, UniProt P42336); experiment: PI3K-Alpha Kinase (PIK3CA) activity in vitro cell based assay (AlphaLisa SureFire)
Sequence of PI3K-α (PIK3CA) in MDA-MB-453 cells (P42336 whole entry): as the sequence (P42336 whole entry H1047R) above, with R1047H counted along it
Sequence of PI3K-α (PIK3CA) in MDA-MB-453 cells (P27986 2-724, further chain): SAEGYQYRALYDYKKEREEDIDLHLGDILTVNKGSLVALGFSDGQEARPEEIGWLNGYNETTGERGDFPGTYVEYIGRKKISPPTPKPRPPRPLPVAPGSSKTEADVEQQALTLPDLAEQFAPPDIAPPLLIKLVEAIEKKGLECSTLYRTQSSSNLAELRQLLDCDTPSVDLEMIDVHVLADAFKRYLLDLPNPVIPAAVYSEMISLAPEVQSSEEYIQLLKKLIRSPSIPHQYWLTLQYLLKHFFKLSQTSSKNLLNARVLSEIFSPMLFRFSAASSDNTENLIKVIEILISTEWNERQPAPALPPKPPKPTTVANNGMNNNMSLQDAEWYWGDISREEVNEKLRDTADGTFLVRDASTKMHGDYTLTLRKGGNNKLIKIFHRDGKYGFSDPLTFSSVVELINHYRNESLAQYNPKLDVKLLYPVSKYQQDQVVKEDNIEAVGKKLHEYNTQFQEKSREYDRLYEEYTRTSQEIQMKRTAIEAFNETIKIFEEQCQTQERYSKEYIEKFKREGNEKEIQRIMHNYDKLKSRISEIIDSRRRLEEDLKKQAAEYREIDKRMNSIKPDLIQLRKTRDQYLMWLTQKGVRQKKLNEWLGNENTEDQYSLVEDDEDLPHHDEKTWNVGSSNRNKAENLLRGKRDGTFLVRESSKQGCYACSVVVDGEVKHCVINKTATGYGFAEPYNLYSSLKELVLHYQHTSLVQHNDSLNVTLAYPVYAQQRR
Experimental: PI3K-Alpha Kinase (PIK3CA) Activity In Vitro Cell Based Assay and Determining IC50 Values for Inhibitors
The MDA-MB-453 (ATCC-HTB-131) cell line was obtained from the American Type Culture Collection (Manassas, Va.). Cells were maintained in Dulbecco's Modified Eagle Media (DMVEM, Gibco 11965-092) supplemented with 10% Fetal Bovine Serum, heat inactivated (FBS HI, Gibco 10082-147), 1× non-essential amino acids (NEAA, Gibco 11140-050), and 1 mM sodium pyruvate (Gibco 11360-070). Cultures were maintained in a humidified incubator at 37° C. under […].
For compound testing in 0% FBS, MDA-MB-453 cells were seeded at a density of 1.5×10^4 cells per well in white 384-well plates in 20 μl of Minimum Essential Media (MEM) assay media with 1×NEAA, 1 mM sodium pyruvate, and 1 μg/mL human insulin (Sigma I9278). Compounds dissolved in 10 mM stock solutions in DMSO were serially diluted 1:3 in DMSO to generate a 10-point dilution series and plated using an acoustic liquid handler system (Echo 550 Series Liquid Handler, Labcyte). A 5× intermediate compound dilution plate in MEM with 1×NEAA and 1 mM sodium pyruvate (150 μM starting compound concentration in 1.5% DMSO) was then prepared. Five μl of the intermediate serially diluted compounds were added to the cell plate to final concentrations ranging from […] in 0.3% DMSO. 0.3% DMSO alone was used to establish the maximum (MAX) signal and GDC-0032 at a final concentration of 1 μM was used as a reference compound for the minimum (MIN) signal. After 3 hours treatment, the medium was removed, and the cells lysed in 10 μL of 1× SureFire Lysis buffer with shaking for 10 minutes at room temperature. The Acceptor Mix (Reaction Buffer 1+Reaction Buffer 2+Activation Buffer+SureFire Ultra Acceptor Beads) was prepared by diluting Activation buffer 25-fold in combined Reaction Buffer 1 and Reaction Buffer 2. The Acceptor beads were diluted 50-fold in the combined Reaction Buffers. Five μL of Acceptor Mix was added to each well, the plate was sealed and covered with foil and incubated for 1 hour at room temperature. The Donor Mix (dilution buffer+SureFire Ultra Donor Beads) was prepared by diluting Donor Beads 50-fold in dilution buffer. Five μL of the Donor Mix was added to each well and the plate sealed and covered with foil and incubated for 1 hour at room temperature in the dark. The plates were read on a Neo2 plate reader instrument from Biotek using standard AlphaLisa settings.
Compounds were tested in duplicate and the average % inhibition at each compound concentration was used to generate a single dose response curve. The data were processed using the Genedata-Screener tool. Relative IC50 values were determined using luminescence units by calculating percent inhibition with respect to the in-plate “MIN” (GDC-0032 reference control) and “MAX” (DMSO) controls. The data was analyzed using a 4-parameter nonlinear logistic equation (four-parameter logistic concentration-response curve):
Y=bottom+[(top−bottom)/1+(X/IC50)slope]
where Y=% inhibition, X=concentration of inhibitor, bottom=minimum value of y attained by curve-fit, top=maximum value of y attained by curve-fit and slope=steepness of curve at the IC50.
% Inhibition=[(signal at X−median Min)/(median Max−median Min)]×100
IC50: concentration of compound that reduces a given response (ligand binding, enzyme response) by 50%. Relative IC50: concentration giving half the compound's maximum response.
For IC50 values shown in Table B, “A” means IC50<50 nM; “B” means IC50 ranging between 50 nM and 100 nM; “C” means IC50 ranging between 100 nM and 500 nM; “D” means IC50>500 nM.

[4] = read-out: PI3K-α (PIK3CA) in vitro cell based assay IC50, 0% FBS, 3 hours treatment
[5] = 0% FBS, 3 hours treatment, read-out: PI3K-α (PIK3CA) in vitro cell based assay IC50

COc1ccc(-c2oc3c(C(C)Nc4ccccc4C(=O)O)cc(C)cc3c(=O)c2C)cn1 (single isomer, unassigned) [Example 65, 2-[1-[2-(6-Methoxy-3-pyridyl)-3,6-dimethyl-4-oxo-chromen-8-yl]ethylamino]benzoic acid, Isomer 1,2,2,2-trifluoroacetic acid]
IC50 ([1]; Soy PI lipid substrate): 1 to 5 µM | IC50 ([2]; Soy PI lipid substrate): < 0.5 µM | IC50 [3, 4]: < 0.05 µM

Cc1cc(C(C)Nc2ccccc2C(=O)O)c2oc(-c3cnc(-c4ccccc4)s3)c(C)c(=O)c2c1 (single isomer, unassigned) [Example 126, 2-[1-[3,6-Dimethyl-4-oxo-2-(2-phenylthiazol-5-yl)chromen-8-yl]ethylamino]benzoic acid, Isomer 1,2,2,2-trifluoroacetic acid]
IC50 ([1]; Soy PI lipid substrate): < 0.5 µM | IC50 ([2]; Soy PI lipid substrate): < 0.5 µM | IC50 [3, 4]: 0.05 to 0.1 µM

CC(Nc1ccccc1C(=O)O)c1cc(C(F)(F)F)cc2c(=O)cc(-c3ccccn3)oc12 (single isomer, unassigned; isomer 1) [Example 76, 2-[1-[4-Oxo-2-(2-pyridyl)-6-(trifluoromethyl)chromen-8-yl]ethylamino]benzoic acid, Isomer 1]
IC50 ([1]; Soy PI lipid substrate): 5 to 10 µM | IC50 ([2]; Soy PI lipid substrate): < 0.5 µM | IC50 [3, 5]: 0.05 to 0.1 µM

Cc1cc(C(C)Nc2cccc(F)c2C(=O)O)c2oc(-c3cnn(-c4ccc(C#N)cc4)c3)cc(=O)c2c1 (single isomer, unassigned; isomer 2) [Example 113, 2-[1-2-[1-(4-Cyanophenyl)pyrazol-4-yl]-6-methyl-4-oxo-chromen-8-yl]ethylamino]-6-fluoro-benzoic acid, Isomer 2]
IC50 ([1]; Soy PI lipid substrate): 1 to 5 µM | IC50 ([2]; Soy PI lipid substrate): < 0.5 µM | IC50 [3, 5]: 0.1 to 0.5 µM

Cc1cc(C(C)Nc2ccccc2C(=O)O)c2oc(-c3ccc(F)nc3)cc(=O)c2c1 (single isomer, unassigned; isomer 2) [Example 36, 2-[1-[2-(6-Fluoro-3-pyridyl)-6-methyl-4-oxo-chromen-8-yl]ethylamino]benzoic acid, Isomer 2]
IC50 ([1]; Soy PI lipid substrate): 5 to 10 µM | IC50 ([2]; Soy PI lipid substrate): < 0.5 µM | IC50 [3, 5]: < 0.05 µM

COc1ccc(-n2cc(-c3cc(=O)c4cc(C)cc(C(C)Nc5ccccc5C(=O)O)c4o3)cn2)cc1 (single isomer, unassigned) [Example 79, 2-[1-[2-[1-(4-Methoxyphenyl)pyrazol-4-yl]-6-methyl-4-oxo-chromen-8-yl]ethylamino]benzoic acid, Isomer 2,2,2,2-trifluoroacetic acid]
IC50 ([1]; Soy PI lipid substrate): 1 to 5 µM | IC50 ([2]; Soy PI lipid substrate): < 0.5 µM | IC50 [3, 4]: 0.05 to 0.1 µM

Cc1cc(C(C)Nc2cccnc2C(=O)O)c2oc(-c3cncc(F)c3)c(C)c(=O)c2c1 (single isomer, unassigned; isomer 1) [Example 131, 3-[1-[2-(5-Fluoro-3-pyridyl)-3,6-dimethyl-4-oxo-chromen-8-yl]ethylamino]pyridine-2-carboxylic acid, Isomer 1]
IC50 ([1]; Soy PI lipid substrate): > 10 µM | IC50 ([2]; Soy PI lipid substrate): 1 to 5 µM | IC50 [3, 5]: 0.05 to 0.1 µM

COc1ncc(-c2cc(=O)c3cc(C)cc(C(C)Nc4ccccc4C(=O)O)c3o2)cn1 (single isomer, unassigned) [Example 5, 2-[1-[2-(2-Methoxypyrimidin-5-yl)-6-methyl-4-oxo-chromen-8-yl]ethylamino]benzoic acid]
IC50 ([1]; PIP2diC8 lipid substrate): > 10 µM | IC50 ([2]; PIP2diC8 lipid substrate): > 10 µM | IC50 [3, 5]: > 0.5 µM

COc1ccc(-c2cc(=O)c3cc(C)cc(C(C)Nc4ccccc4C(=O)O)c3o2)cn1 (single isomer, unassigned; isomer 1) [Example 19, 2-[1-[2-(6-Methoxy-3-pyridyl)-6-methyl-4-oxo-chromen-8-yl]ethylamino]benzoic acid, Isomer 1]
IC50 ([1]; Soy PI lipid substrate): > 10 µM | IC50 ([2]; Soy PI lipid substrate): 5 to 10 µM | IC50 [3, 5]: > 0.5 µM

Cc1cc(C(C)Nc2ccccc2C(=O)O)c2oc(-c3ccc(OC(C)C)nc3)cc(=O)c2c1 (single isomer, unassigned; isomer 1) [Example 30, 2-[1-[2-(6-Isopropoxy-3-pyridyl)-6-methyl-4-oxo-chromen-8-yl]ethylamino]benzoic acid, Isomer 1]
IC50 ([1]; PIP2diC8 lipid substrate): > 10 µM | IC50 ([2]; PIP2diC8 lipid substrate): 5 to 10 µM | IC50 [3, 5]: > 0.5 µM

Cc1cc(C(C)Nc2ccccc2C(=O)O)c2oc(-c3cnc(C)nc3)cc(=O)c2c1 (single isomer, unassigned; isomer 2) [Example 33, 2-[1-[6-Methyl-2-(2-methylpyrimidin-5-yl)-4-oxo-chromen-8-yl]ethylamino]benzoic acid, Isomer 2]
IC50 ([1]; PIP2diC8 lipid substrate): > 10 µM | IC50 ([2]; PIP2diC8 lipid substrate): > 10 µM | IC50 [3, 5]: > 0.5 µM

Cc1cc(C(C)Nc2ccccc2C(=O)O)c2oc(-c3cn(-c4ccc(C#N)cc4)nn3)cc(=O)c2c1 (single isomer, unassigned) [Example 124, 2-[1-[2-[1-(4-Cyanophenyl)triazol-4-yl]-6-methyl-4-oxo-chromen-8-yl]ethylamino]benzoic acid, Isomer 2,2,2,2-trifluoroacetic acid]
IC50 ([1]; Soy PI lipid substrate): 1 to 5 µM | IC50 ([2]; Soy PI lipid substrate): < 0.5 µM | IC50 [3, 4]: 0.05 to 0.1 µM

Cc1cc(C(C)Nc2ccccc2C(=O)O)c2oc(-c3cncc(C#N)c3)c(C)c(=O)c2c1 (single isomer, unassigned) [Example 125, 2-[1-[2-(5-Cyano-3-pyridyl)-3,6-dimethyl-4-oxo-chromen-8-yl]ethylamino]benzoic acid, Isomer 1,2,2,2-trifluoroacetic acid]
IC50 ([1]; Soy PI lipid substrate): 0.5 to 1 µM | IC50 ([2]; Soy PI lipid substrate): < 0.5 µM | IC50 [3, 4]: < 0.05 µM

Cc1cc(C(C)Nc2ccc(C)nc2C(=O)O)c2oc(-c3cncc(F)c3)c(C)c(=O)c2c1 (single isomer, unassigned; isomer 1) [Example 123, 3-[1-[2-(5-Fluoro-3-pyridyl)-3,6-dimethyl-4-oxo-chromen-8-yl]ethylamino]-6-methyl-pyridine-2-carboxylic acid, Isomer 1]
IC50 ([1]; Soy PI lipid substrate): 1 to 5 µM | IC50 ([2]; Soy PI lipid substrate): < 0.5 µM | IC50 [3, 5]: < 0.05 µM

COc1cccc(-c2nnc(-c3cc(=O)c4cc(C)cc(C(C)Nc5ccccc5C(=O)O)c4o3)o2)c1 (single isomer, unassigned; isomer 2) [Example 84, 2-[1-[2-[5-(3-Methoxyphenyl)-1,3,4-oxadiazol-2-yl]-6-methyl-4-oxo-chromen-8-yl]ethylamino]benzoic acid, Isomer 2]
IC50 ([1]; Soy PI lipid substrate): 1 to 5 µM | IC50 ([2]; Soy PI lipid substrate): < 0.5 µM | IC50 [3, 5]: 0.1 to 0.5 µM

Cc1cc(C(C)Nc2ccc(F)c(F)c2C(=O)O)c2oc(-c3ccccn3)c(C)c(=O)c2c1 (single isomer, unassigned; isomer 1) [Example 128, 6-[1-[3,6-Dimethyl-4-oxo-2-(2-pyridyl)chromen-8-yl]ethylamino]-2,3-difluoro-benzoic acid, Isomer 1]
IC50 ([1]; Soy PI lipid substrate): 0.5 to 1 µM | IC50 ([2]; Soy PI lipid substrate): < 0.5 µM | IC50 [3, 5]: 0.05 to 0.1 µM

CC(Nc1ccccc1C(=O)O)c1cc(F)cc2c(=O)cc(-c3cnn(-c4cccnc4)c3)oc12 (single isomer, unassigned) [Example 55, 2-[1-[6-Fluoro-4-oxo-2-[1-(3-pyridyl)pyrazol-4-yl]chromen-8-yl]ethylamino]benzoic acid, Isomer 1,2,2,2-trifluoroacetic acid]
IC50 ([1]; Soy PI lipid substrate): 5 to 10 µM | IC50 ([2]; Soy PI lipid substrate): < 0.5 µM | IC50 [3, 4]: 0.1 to 0.5 µM
